IC50 and CC50 data for 13 compounds are collected here from ChEMBL document CHEMBL4414600, “Discovery of a Furanopyrimidine-Based Epidermal Growth Factor Receptor Inhibitor (DBPR112) as a Clinical Candidate for the Treatment of Non-Small Cell Lung Cancer” (J Med Chem, 2019).

In assay [1] the target is Epidermal growth factor receptor (Homo sapiens, UniProt P00533, L858R/T790M).
The next assay concerns HCC827. The experiment in a line: Cytotoxicity in human HCC827 cells assessed as reduction in cell viability incubated for 96 hrs by MTS method. The class given is functional. For orientation: Tetrazolium dyes change colour on reduction, which living cells bring about.
Assay [2] has as its target Epidermal growth factor receptor (Homo sapiens, UniProt P00533).
Description: Inhibition of GST-tagged human EGFR kinase domain (696 to 1022 residues) using poly(Glu, Tyr) 4:1 substrate incubated for 60 mins by kinase-Glo plus luminescent kinase assay
The subject of a further assay is NCI-H1975. The assay is described as follows: Cytotoxicity in human NCI-H1975 cells assessed as reduction in cell viability incubated for 96 hrs by MTS method. The format is functional.
Assay [3] is described as follows: Inhibition of GST-tagged human HER2 V777_G778insCG mutant mutant using poly(Glu, Tyr) 4:1 substrate incubated for 120 mins by kinase-Glo plus luminescent kinase assay. (In general: Kinase-Glo measures the ATP left after a reaction by luminescence.)
Assay [4] can be described thus: Inhibition of GST-tagged human EGFR D770GY mutant using poly(Glu, Tyr) 4:1 substrate incubated for 120 mins by kinase-Glo plus luminescent kinase assay.
The test system of another assay is A-431. The experiment in a line: Cytotoxicity in human A431 cells assessed as reduction in cell viability incubated for 96 hrs by MTS method. The format is functional.

Chain of Epidermal growth factor receptor (Homo sapiens, UniProt P00533) (P00533 whole entry): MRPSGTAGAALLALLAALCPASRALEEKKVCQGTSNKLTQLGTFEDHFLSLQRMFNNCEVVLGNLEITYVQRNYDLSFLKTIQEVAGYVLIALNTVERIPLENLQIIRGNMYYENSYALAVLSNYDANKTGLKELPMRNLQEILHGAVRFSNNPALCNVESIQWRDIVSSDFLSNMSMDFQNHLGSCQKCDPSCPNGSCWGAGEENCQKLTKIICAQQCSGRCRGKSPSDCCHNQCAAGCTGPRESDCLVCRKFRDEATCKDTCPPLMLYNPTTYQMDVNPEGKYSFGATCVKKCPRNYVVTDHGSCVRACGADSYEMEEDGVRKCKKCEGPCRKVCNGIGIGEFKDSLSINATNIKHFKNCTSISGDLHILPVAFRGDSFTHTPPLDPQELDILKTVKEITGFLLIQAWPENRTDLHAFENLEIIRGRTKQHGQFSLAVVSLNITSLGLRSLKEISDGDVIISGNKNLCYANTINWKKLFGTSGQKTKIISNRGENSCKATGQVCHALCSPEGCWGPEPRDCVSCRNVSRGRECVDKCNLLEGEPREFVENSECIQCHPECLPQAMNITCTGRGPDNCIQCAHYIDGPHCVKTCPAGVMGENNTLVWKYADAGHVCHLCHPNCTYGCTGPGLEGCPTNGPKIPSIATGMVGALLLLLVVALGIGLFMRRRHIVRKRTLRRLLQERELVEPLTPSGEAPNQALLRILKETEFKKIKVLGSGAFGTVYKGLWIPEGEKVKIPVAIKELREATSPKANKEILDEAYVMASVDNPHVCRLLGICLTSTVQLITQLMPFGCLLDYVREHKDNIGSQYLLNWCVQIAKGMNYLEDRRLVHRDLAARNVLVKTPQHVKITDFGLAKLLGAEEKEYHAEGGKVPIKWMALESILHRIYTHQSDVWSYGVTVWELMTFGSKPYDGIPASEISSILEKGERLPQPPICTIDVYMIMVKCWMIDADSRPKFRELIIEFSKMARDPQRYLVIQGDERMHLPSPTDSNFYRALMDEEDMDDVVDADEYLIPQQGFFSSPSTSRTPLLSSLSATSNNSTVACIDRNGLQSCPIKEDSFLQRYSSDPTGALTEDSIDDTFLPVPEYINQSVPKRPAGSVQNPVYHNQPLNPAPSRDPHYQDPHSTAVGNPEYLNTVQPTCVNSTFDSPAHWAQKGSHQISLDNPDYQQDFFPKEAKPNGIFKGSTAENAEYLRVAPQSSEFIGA
Chain of Epidermal growth factor receptor (Homo sapiens, UniProt P00533, L858R/T790M) (P00533 25-1210 T790M/L858R limits assumed): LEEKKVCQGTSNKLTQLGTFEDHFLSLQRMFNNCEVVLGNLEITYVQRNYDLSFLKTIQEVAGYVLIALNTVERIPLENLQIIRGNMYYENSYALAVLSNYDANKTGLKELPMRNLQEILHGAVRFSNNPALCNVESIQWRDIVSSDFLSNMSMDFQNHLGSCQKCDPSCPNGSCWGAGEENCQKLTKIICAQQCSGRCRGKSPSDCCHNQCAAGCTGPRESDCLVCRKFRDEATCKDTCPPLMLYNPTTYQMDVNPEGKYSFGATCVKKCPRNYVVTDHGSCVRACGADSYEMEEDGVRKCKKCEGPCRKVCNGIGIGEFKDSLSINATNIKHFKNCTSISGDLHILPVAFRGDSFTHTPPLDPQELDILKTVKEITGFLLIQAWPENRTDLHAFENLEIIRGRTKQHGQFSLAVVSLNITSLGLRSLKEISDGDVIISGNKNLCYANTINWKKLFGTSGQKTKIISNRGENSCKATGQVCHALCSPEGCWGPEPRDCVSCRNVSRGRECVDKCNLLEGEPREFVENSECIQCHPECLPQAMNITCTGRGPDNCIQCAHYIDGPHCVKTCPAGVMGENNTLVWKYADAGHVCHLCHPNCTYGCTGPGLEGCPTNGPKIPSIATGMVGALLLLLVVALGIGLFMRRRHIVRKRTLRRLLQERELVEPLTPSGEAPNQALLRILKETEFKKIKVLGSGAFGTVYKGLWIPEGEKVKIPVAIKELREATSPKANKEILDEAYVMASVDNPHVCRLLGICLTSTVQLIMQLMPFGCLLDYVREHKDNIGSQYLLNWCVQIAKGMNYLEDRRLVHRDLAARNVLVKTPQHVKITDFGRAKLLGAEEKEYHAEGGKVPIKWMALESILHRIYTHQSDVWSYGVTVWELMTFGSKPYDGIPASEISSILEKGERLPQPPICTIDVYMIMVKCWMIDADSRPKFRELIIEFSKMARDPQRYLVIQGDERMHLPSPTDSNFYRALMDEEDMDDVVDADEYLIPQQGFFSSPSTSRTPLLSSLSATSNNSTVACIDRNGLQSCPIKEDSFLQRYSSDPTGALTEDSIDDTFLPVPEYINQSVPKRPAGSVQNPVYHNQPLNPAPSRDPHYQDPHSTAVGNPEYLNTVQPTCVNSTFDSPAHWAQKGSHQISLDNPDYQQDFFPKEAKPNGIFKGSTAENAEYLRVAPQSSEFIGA

As usually defined, the IC50 is the point on the concentration scale where inhibition reaches its midpoint. Broadly, the CC50 is the concentration giving 50% cytotoxicity. For `O=C(O)/C=C/C(=O)Nc1cccc(-c2c(-c3ccccc3)oc3ncnc(N[C@H](CO)c4ccccc4)c23)c1`, the IC50 is greater than 10000 nM in assay [1] and 3060 nM in assay [2]. In addition, the CC50 in the assay with HCC827 (Homo sapiens, HCC827, 96 h) is 4120 nM; in the assay with NCI-H1975 (Homo sapiens, NCI-H1975, 96 h), greater than 20000 nM.

Take `C=CC(=O)Nc1cc(Nc2nccc(-c3cn(C)c4ccccc34)n2)c(OC)cc1N(C)CCN(C)C` [OSIMERTINIB]: the IC50 is 3.31 nM in assay [3] and 0.858 nM in assay [4]. Further, the CC50 in the assay on A-431 came to […].

`C=CC(=O)Nc1cccc(-c2c(-c3ccccc3OC)oc3ncnc(N[C@H](CO)c4ccccc4)c23)c1`: the IC50 stood at 5.2 nM in assay [3] and 0.295 nM in assay [4]. The CC50 with HCC827 (Homo sapiens, HCC827, 96 h) was 34 nM; in the assay with A-431 (Homo sapiens, A-431, 96 h), greater than 8010 nM; in the assay with NCI-H1975 (Homo sapiens, NCI-H1975, 96 h) it was 4080 nM.

With `C=CC(=O)Nc1cccc(-c2c(C)sc3ncnc(N[C@H](CO)c4ccccc4)c23)c1`, the figures for the IC50 in assay [1] and in assay [2] were 1260 nM and 107 nM, respectively. Besides, the CC50 in the assay on HCC827 (Homo sapiens, HCC827, 96 h) came to 35 nM; in the assay on NCI-H1975 (Homo sapiens, NCI-H1975, 96 h), 12600 nM.

With `CCN(C/C=C/C(=O)Nc1cccc(-c2c(-c3ccccc3)oc3ncnc(N[C@H](CO)c4ccccc4)c23)c1)CCO`, the IC50 in assay [1] was 117 nM; in assay [2], 13 nM. Also, the CC50 in the assay with HCC827 (Homo sapiens, HCC827, 96 h) turned out to be 19 nM; in the assay on NCI-H1975 (Homo sapiens, NCI-H1975, 96 h) it was 2410 nM.

With `C=CS(=O)(=O)Nc1cccc(-c2c(-c3ccccc3)oc3ncnc(N[C@H](CO)c4ccccc4)c23)c1`, the IC50 in assay [1] was found to be 2460 nM; in assay [2], 3670 nM. Further, the CC50 in the assay on HCC827 (Homo sapiens, HCC827, 96 h) came to 2710 nM; in the assay on NCI-H1975 (Homo sapiens, NCI-H1975, 96 h) it was 7240 nM.

Compound `OC[C@@H](Nc1ncnc2oc(-c3ccccc3)c(-c3ccccc3)c12)c1ccccc1` came in with an IC50 in assay [1] greater than 10000 nM. Further, the CC50 with HCC827 (Homo sapiens, HCC827, 96 h) worked out at 518 nM.

For `O=C(/C=C/CN1CCOCC1)Nc1cccc(-c2c(-c3ccccc3)oc3ncnc(N[C@H](CO)c4ccccc4)c23)c1`, the IC50 in assay [1] turned out to be 283 nM; in assay [2] it was 19 nM. In addition, the CC50 in the assay on HCC827 (Homo sapiens, HCC827, 96 h) was 17 nM; with NCI-H1975 (Homo sapiens, NCI-H1975, 96 h), 2830 nM.

With `CCN(CC)C/C=C/C(=O)Nc1cccc(-c2c(-c3ccccc3)oc3ncnc(N[C@H](CO)c4ccccc4)c23)c1`, the half-inhibitory concentration (IC50) in assay [1] is 131 nM; in assay [2], 14 nM. Further, the CC50 worked out at 62 nM with HCC827 (Homo sapiens, HCC827, 96 h) and 2480 nM in the assay with NCI-H1975 (Homo sapiens, NCI-H1975, 96 h).

For `CC#CC(=O)Nc1cccc(-c2c(-c3ccccc3)oc3ncnc(N[C@H](CO)c4ccccc4)c23)c1`, the IC50 came out at 6370 nM in assay [1] and 64 nM in assay [2]. Further, the CC50 with HCC827 (Homo sapiens, HCC827, 96 h) was found to be 182 nM; in the assay with NCI-H1975 (Homo sapiens, NCI-H1975, 96 h) it was 6740 nM.

Regarding `C=CC(=O)Nc1cccc(-c2c(-c3ccccc3)oc3ncnc(N[C@@H](CO)c4ccccc4)c23)c1`, the CC50 in the assay on HCC827 was 840 nM; in the assay with NCI-H1975, 13400 nM.

With `CCOC(=O)/C=C/C(=O)Nc1cccc(-c2c(-c3ccccc3)oc3ncnc(N[C@H](CO)c4ccccc4)c23)c1`, the CC50 in the assay on HCC827 (Homo sapiens, HCC827, 96 h) stood at 516 nM; in the assay with NCI-H1975 (Homo sapiens, NCI-H1975, 96 h), 7010 nM.

Turning to `C/C=C/C(=O)Nc1cccc(-c2c(-c3ccccc3)oc3ncnc(N[C@H](CO)c4ccccc4)c23)c1`, the half-inhibitory concentration (IC50) in assay [1] was greater than 10000 nM; in assay [2], 239 nM. In addition, the CC50 turned out to be 307 nM with HCC827 (Homo sapiens, HCC827, 96 h) and 13200 nM with NCI-H1975 (Homo sapiens, NCI-H1975, 96 h).
